Patent publication US10792295B2, “Compositions for management of Helicobacter pylori infections” (SAMI LABS LIMITED, priority 2017, dated 2020)

What was measured:
Format in all cases: cell-based
[1] = tested on: Helicobacter pylori ATCC 43504; test: Minimum inhibitory concentration (MIC) determination, broth microdilution; conditions: H. pylori ATCC 43504; 72 h, BHI broth with 7% FBS, no turbidity
Experimental: (§1) Helicobacter pylori ATCC 43504 and ATCC 700392 were purchased from the American Type Culture Collection (ATCC, Manassas, Va., USA). Cultures were grown in brain heart infusion (BHI) agar/broth (HiMedia, Mumbai India) supplemented with 7% (v/v) sheep blood or fetal bovine serum and incubated at 37° C. under microaerobic conditions (Na, 85%; 02, 5%; CO2, 10%) using an anaerobic chamber (Imset, Mumbai, India). Bacillus coagulans MTCC 5856 was grown in MRS media by adding inoculum (5% v/v) to the MRS broth and incubated at 37° C. for 24 h. After 24 h, the culture was centrifuged (5,000×g) to remove the cells and the supernatant was collected, concentrated 10-fold by lyophilization and filter sterilized through a 0.22 micron filter (Millipore, India). The cell-free supernatant was tested against H. pylori and 10-fold concentrated supernatant was also tested against H. pylori ATCC 43504 and ATCC 700392. The MICs of curcumin, β-glucogallin and mucic acid gallates extract and Piperine extract were determined as per the guidelines of Clinical and Laboratory Standards Institute (formerly the National Committee for Clinical Laboratory Standards). […] After incubation, plates were visually read for the absence or presence of turbidity. The minimum concentration of the compound concentration showing no turbidity was recorded as MIC.

[2] = tested on: Helicobacter pylori ATCC 700392; test: as above; conditions: H. pylori ATCC 700392; 72 h, BHI broth with 7% FBS, no turbidity
Experimental: as §1

[3] = tested on: Helicobacter pylori ATCC 43504; test: Well diffusion method, zones of inhibition; conditions: ATCC43504, 72 h, H. pylori ATCC 43504, 1000 μg/well, 3 days, 37° C., microaerobic
Experimental: (§2) Helicobacter pylori ATCC 43504 and ATCC 700392 were purchased from the American Type Culture Collection (ATCC, Manassas, Va., USA). Cultures were grown in brain heart infusion (BHI) agar/broth (HiMedia, Mumbai India) supplemented with 7% (v/v) sheep blood or fetal bovine serum and incubated at 37° C. under microaerobic conditions (Na, 85%; 02, 5%; CO2, 10%) using an anaerobic chamber (Imset, Mumbai, India). Bacillus coagulans MTCC 5856 was grown in MRS media by adding inoculum (5% v/v) to the MRS broth and incubated at 37° C. for 24 h. After 24 h, the culture was centrifuged (5,000×g) to remove the cells and the supernatant was collected, concentrated 10-fold by lyophilization and filter sterilized through a 0.22 micron filter (Millipore, India). The cell-free supernatant was tested against H. pylori and 10-fold concentrated supernatant was also tested against H. pylori ATCC 43504 and ATCC 700392. Similar to above, BHI agar plates supplemented with 7% (v/v) fetal bovine serum were prepared containing a strain of Helicobacter pylori ATCC 43504 or ATCC 700392. Further, well was made in the BHI agar plates containing Helicobacter pylori ATCC 43504 or ATCC 700392. […] After incubation, the antibacterial activities were evaluated by measuring a diameter of the inhibition zone. […]

[4] = tested on: Helicobacter pylori ATCC 700392; test: Well diffusion method, zones of inhibition; conditions: ATCC700392, 72 h, H. pylori ATCC 700392, 1000 μg/well, 3 days, 37° C., microaerobic
Experimental: as §2

- MIC range [1]: 125 to 250 µg/mL
- MIC range [2]: 125 to 250 µg/mL
Compound: COc1cc(/C=C/C(=O)CC(=O)/C=C/c2ccc(O)c(OC)c2)ccc1O [Curcumin]
- zone of inhibition at 1000 µg/disc [3]: 13 ± 1.2 mm
- zone of inhibition at 1000 µg/disc [4]: 14 ± 1.2 mm
